Measured values published in US7776913B2, “Carnitines for treating or preventing disorders caused by andropause” (Sigma-Tau Industrie Farmaceutiche Riunite S.p.A., priority 2002, dated 2010).

Key:
[1] = tested on: Patients aged over 60 years with lowered blood concentrations of free and total testosterone; assay: Total blood prostate-specific antigen (PSA) in the clinical trial; conditions: for PSA: mean ± SD, 15 patients
From the text: (§1) Reported here below is a clinical trial conducted in order to evaluate the activity of the combination according to the association in the treatment of the symptoms of male ageing.
(§2) Patients aged over 60 years with lowered blood concentrations of free and total testosterone (The Aging Male 4: 151-162, 2001) and complaining of symptoms figuring in the working definition of andropause proposed by the International Society for the Study of the Aging Male (I.S.S.A.M.) (The Aging Male 4: 151-162, 2001): reduced libido or sex drive and erectile function, depressed mood, difficulty concentrating, irritability and fatigue.
(§3) The above-mentioned compounds were presented to the patients in anonymous containers and administered for 6 months.
(§4) Medical history-taking and physical examinations were done for all patients. The following data were also collected prior to the start of treatment, after 1, 3 and 6 months of treatment: • 1. Total blood prostate-specific antigen (PSA) (ng/ml) as measured with the automatic test and monoclonal antibodies [Rigatti P., Scattoni V.: PSA: Antigene prostatico specifico. Edizioni Medico Scientifiche (EDIMES) Pavia, 1997]. • 2. Prostate volume (cm^3) as measured by suprapubic ultrasonography and calculated by means of the three diameters rule [Rigatti P. Scattoni V.: PSA: Antigene prostatico specifico. Edizioni Medico Scientifiche (EDIMES) Pavia, 1997]. • 3. Peak systolic volume (PSV) (cm/sec), end-diastolic velocity (EDV) (cm/sec), and Resistance Index (RI) (%) of the penile arteries (right and left cavernous e dorsal) as measured by means of penile basal and dynamic colour Doppler ultrasonography. RI was calculated as follows: (PSV-EDV/EDV)×100 (Urology 1997: 49: 822-830). • 4. Duration of full erections (in minutes) in the course of a recording period of three nights performed with Rigiscan. […] Free and total blood testosterone, LH and prolactin levels (The Aging Male 4: 151-162, 2001). • 6. Sexual function was checked by means of semistructured interviews and administration of the International Index of Erectile Function (IIEF-15) (Urology 1997: 49: 822-830). A score was calculated for each patient. • 7. Depression was quantified by means of the Hamilton Depression Scale questionnaire (DMS III) (Cancer 94: 2481-2489, 2002). A score was calculated for each patient. • 8. The subjective sensation of fatigue was calculated using the fatigue scale (Lison L.: Statistica applicata alla biologia sperimentale. Milano: Casa Editrice Ambrosiana, 1972). A score was calculated for each patient. • 9. Side effects. […]

[2] = tested on: Patients aged over 60 years with lowered blood concentrations of free and total testosterone; assay: Prostate volume by suprapubic ultrasonography (three diameters rule); conditions: mean ± SD
From the text: as §1, §2, §3
(§5) Medical history-taking and physical examinations were done for all patients. The following data were also collected prior to the start of treatment, after 1, 3 and 6 months of treatment: • 1. Total blood prostate-specific antigen (PSA) (ng/ml) as measured with the automatic test and monoclonal antibodies [Rigatti P., Scattoni V.: PSA: Antigene prostatico specifico. Edizioni Medico Scientifiche (EDIMES) Pavia, 1997]. • 2. Prostate volume (cm^3) as measured by suprapubic ultrasonography and calculated by means of the three diameters rule [Rigatti P. Scattoni V.: PSA: Antigene prostatico specifico. […] Peak systolic volume (PSV) (cm/sec), end-diastolic velocity (EDV) (cm/sec), and Resistance Index (RI) (%) of the penile arteries (right and left cavernous e dorsal) as measured by means of penile basal and dynamic colour Doppler ultrasonography. RI was calculated as follows: (PSV-EDV/EDV)×100 (Urology 1997: 49: 822-830). • 4. […] A score was calculated for each patient. • 7. Depression was quantified by means of the Hamilton Depression Scale questionnaire (DMS III) (Cancer 94: 2481-2489, 2002). A score was calculated for each patient. • 8. The subjective sensation of fatigue was calculated using the fatigue scale (Lison L.: Statistica applicata alla biologia sperimentale. Milano: Casa Editrice Ambrosiana, 1972). A score was calculated for each patient. • 9. […]

[3] = tested on: Patients aged over 60 years with lowered blood concentrations of free and total testosterone; assay: Penile dynamic colour Doppler ultrasonography (PSV, EDV, RI of cavernous arteries); assay type: in vivo, human; conditions: mean ± SD
From the text: as §1, §2, §3
(§6) Medical history-taking and physical examinations were done for all patients. The following data were also collected prior to the start of treatment, after 1, 3 and 6 months of treatment: • 1. Total blood prostate-specific antigen (PSA) (ng/ml) as measured with the automatic test and monoclonal antibodies [Rigatti P., Scattoni V.: PSA: Antigene prostatico specifico. Edizioni Medico Scientifiche (EDIMES) Pavia, 1997]. • 2. Prostate volume (cm^3) as measured by suprapubic ultrasonography and calculated by means of the three diameters rule [Rigatti P. Scattoni V.: PSA: Antigene prostatico specifico. Edizioni Medico Scientifiche (EDIMES) Pavia, 1997]. • 3. Peak systolic volume (PSV) (cm/sec), end-diastolic velocity (EDV) (cm/sec), and Resistance Index (RI) (%) of the penile arteries (right and left cavernous e dorsal) as measured by means of penile basal and dynamic colour Doppler ultrasonography. RI was calculated as follows: (PSV-EDV/EDV)×100 (Urology 1997: 49: 822-830). • 4. Duration of full erections (in minutes) in the course of a recording period of three nights performed with Rigiscan. […] Free and total blood testosterone, LH and prolactin levels (The Aging Male 4: 151-162, 2001). • 6. Sexual function was checked by means of semistructured interviews and administration of the International Index of Erectile Function (IIEF-15) (Urology 1997: 49: 822-830). A score was calculated for each patient. • 7. Depression was quantified by means of the Hamilton Depression Scale questionnaire (DMS III) (Cancer 94: 2481-2489, 2002). A score was calculated for each patient. • 8. The subjective sensation of fatigue was calculated using the fatigue scale (Lison L.: Statistica applicata alla biologia sperimentale. Milano: Casa Editrice Ambrosiana, 1972). A score was calculated for each patient. • 9. Side effects.
(§7) Blood concentrations of PSA, free and total testosterone, prolactin LH, prostate volume, PSV, EDV, RI, full erection duration, IIEF-15, DMS III, and fatigue scale scores were compared between and within groups by means of factorial analysis of variance for randomised blocks (1 patient=1 block). Comparison of the mean values was done on the raw data with the exclusion of RI which used data subjected to angular transformation (sin^−1 √P/100) for the comparisons. Side effects were compared using the chi-square etst (Lison L.: Statistica applicata alla biologia sperimentale. Milano: Casa Editrice Ambrosiana, 1972).

[4] = tested on: Patients aged over 60 years with lowered blood concentrations of free and total testosterone; assay: Duration of full nocturnal erections, three nights by Rigiscan; assay type: in vivo, human; conditions: for Duration of full erections: three nights by Rigiscan, mean ± SD
From the text: as §1, §2, §3, §4

[5] = tested on: Patients aged over 60 years with lowered blood concentrations of free and total testosterone; assay: Blood levels of total testosterone; assay type: in vivo, human; conditions: for Total testosterone: blood, mean ± SD
From the text: as §1, §2, §3, §4

[6] = tested on: Patients aged over 60 years with lowered blood concentrations of free and total testosterone; assay: Blood levels of free testosterone; assay type: in vivo, human; conditions: mean ± SD
From the text: as §1, §2, §3, §5

[7] = tested on: Patients aged over 60 years with lowered blood concentrations of free and total testosterone; assay: Blood levels of LH; assay type: in vivo, human; conditions: for LH: blood, mean ± SD
From the text: as §1, §2, §3, §6, §7

[8] = tested on: Patients aged over 60 years with lowered blood concentrations of free and total testosterone; assay: Blood prolactin levels; assay type: in vivo, human; parameters: unit not given here; conditions: 3 months of therapy, mean ± SD
From the text: as §1, §2, §3, §5

For testosterone undecaonate, the PSA ([1]; 3 months of therapy) was 2.01 ± 0.79 ng/mL, the PSA ([1]; 6 months of therapy) was 2.02 ± 0.85 ng/mL and the PSA ([1]; before therapy) was 2.02 ± 0.74 ng/mL. The “Change in blood PSA levels (in words)” value ([1]; during and after therapy vs before) was “did not significantly increase”, the Prostate volume ([2]; 3 months of therapy) was 15.5 ± 3.0 cm^3 and the Prostate volume ([2]; 6 months of therapy) was 15.5 ± 2.6 cm^3. The Prostate volume ([2]; before therapy) was 15.3 ± 2.8 cm^3, the “Left cavernous PSV” value ([3]; 3 months of therapy) was 32.6 ± 4.2 cm/sec and the “Left cavernous artery EDV” value ([3]; 3 months of therapy) was 7.5 ± 3.3 cm/s. For the same substance, the “Right cavernous artery EDV” value ([3]; 3 months of therapy) was 7.9 ± 3.6 cm/s, the “Right cavernous artery PSV” value ([3]; 3 months of therapy) was 32.8 ± 4.2 cm/sec and the “Left cavernous PSV” value ([3]; 6 months of therapy) was 33.5 ± 3.5 cm/sec. For the same substance, the “Left cavernous artery EDV” value ([3]; 6 months of therapy) was 7.4 ± 3.3 cm/s, the “Right cavernous artery EDV” value ([3]; 6 months of therapy) was 7.9 ± 3.6 cm/s and the “Right cavernous artery PSV” value ([3]; 6 months of therapy) was 33.7 ± 3.7 cm/sec. The “Left cavernous PSV” value ([3]; before therapy) was 33.6 ± 3.7 cm/sec, the “Left cavernous artery EDV” value ([3]; before therapy) was 7.7 ± 3.5 cm/s and the “Right cavernous artery EDV” value ([3]; before therapy) was 7.8 ± 3.6 cm/s. The “Right cavernous artery PSV” value ([3]; before therapy) was 33.2 ± 3.9 cm/sec, the “Duration of full erections” value ([4]; 3 months of therapy) was 112.7 ± 21.1 min and the “Duration of full erections” value ([4]; 6 months of therapy) was 119.6 ± 26.0 min. For the same substance, the “Change in duration of full nocturnal erections (in words)” value ([4]; at 6 months) was “significant increase”, the “Duration of full erections” value ([4]; before therapy) was 108.3 ± 18.7 min and the “Change in total serum testosterone (in words)” value ([5]; at either 3 or 6 months) was “no significant increases”. For the same substance, the Total testosterone ([5]; 3 months of therapy) was 15.5 ± 3.9 nmol/L, the Total testosterone ([5]; 6 months of therapy) was 15.8 ± 2.6 nmol/L and the Total testosterone ([5]; before therapy) was 14.5 ± 2.1 nmol/L. The Free blood testosterone ([6]; 3 months of therapy) was 19.5 ± 4.2 pg/mL, the Free blood testosterone ([6]; 6 months of therapy) was 19.7 ± 4.0 pg/mL and the Free blood testosterone ([6]; before therapy) was 4.4 ± 0.8 pg/mL. The “Change in blood levels of LH (in words)” value ([7]; at 3 months, F=229 P<0.01) was “statistically significant reduction”, the “Change in blood levels of LH (in words)” value ([7]; at 6 months) was “significant reduction” and the LH ([7]; 3 months of therapy) was 4.3 ± 0.6 IU/l. For the same substance, the LH ([7]; 6 months of therapy) was 4.2 ± 1.2 IU/l, the LH ([7]; before therapy) was 8.9 ± 0.6 IU/l and the Prolactin [8] was 7.4 ± 1.7.
